This note sets out measurements from patent publication US11028090B2 (Dong Wha Pharm. Co., Ltd., priority 2017, dated 2021).

Read-outs that look alike come from different tables or passages of the source.

The test system of assay [1] is acute myelogenous leukemia cells (MV-4-11 cells). In words: Cytotoxicity to acute myelogenous leukemia cells (MV-4-11 cells), CCK-8. The following applies: Homo sapiens, MV4-11, 72 h.
The target of assay [2] is BRD4 (BD1+BD2) bromodomain (Homo sapiens (Human), UniProt O60885). In words: BRD4 binding inhibition (AlphaScreen, GST-BRD4 vs tetraacetylated histone H4 peptide). The procedure, abridged:
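AlphaScreen read after 30 min dark incubation at room temperature with glutathione acceptor/streptavidin donor beads (10 μg/ml each). The beads were added to compound plus 100 nM biotin-H4 (K5,8,12,16-acetyl) peptide and 100 nM GST-BRD4 BD1+BD2 in pH 7.4 HEPES/Tween/BSA/DTT buffer.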
For orientation: In Alpha technology, singlet oxygen from a donor bead excites a nearby acceptor bead.

[3] abbreviates: read-out: IC50, cytotoxicity against acute myelogenous leukemia cells.
Setting [4] is: read-out: MV-4-11 Cytotoxicity IC50.
Setting [5] is: GST-BRD4 (BD1+BD2) / biotinylated acetyl-histone H4 (Lys5,8,12,16) peptide, read-out: IC50, BRD4 binding inhibition.
[6] abbreviates: GST-BRD4 (BD1+BD2) vs biotinylated acetyl-histone H4 peptide, AlphaScreen, read-out: BRD4 IC50.

Regarding `COCCOc1ccc2c(c1)nc(NCCCCNC(=O)[C@H](O)C(C)C)c1nnc(C)n12` [Example 388, 2-(R)-hydroxy-N-{4-[7-(2-methoxy-ethoxy)-1-methyl-[1,2,4]triazolo[4,3-a]quinoxaline-4-ylamino]-butyl}-3-methyl-butyramide], the IC50 was at most 200 nM in assay [1] (setting [3]), 55 nM in assay [1] (setting [4]), at most 10 nM in assay [2] (setting [5]) and 6 nM in assay [2] (setting [6]).

As for `Cc1nnc2c(NCCCCNC(=O)[C@@H](O)C(C)C)nc3cc(-c4nc5ccccc5n4C)ccc3n12` [Example 234, 2-(S)-hydroxy-3-methyl-N-{4-[1-methyl-7-(1-methyl-1H-benzoimidazole-2-yl)-[1,2,4]triazolo[4,3-a]quinoxaline-4-ylamino]-butyl}-butyramide], the IC50 in assay [1] (setting [3]) was at most 200 nM; in assay [1] (setting [4]), 47 nM; in assay [2] (setting [5]) it was at most 10 nM; in assay [2] (setting [6]), 6 nM.

For the molecule `COc1ccc2c(c1)nc(NCCCCNC(=O)C(F)(F)C(F)(F)C(F)(F)F)c1nnc(C)n12` [Example 292, 2,2,3,3,4,4,4-heptafluoro-N-[4-(7-methoxy-1-methyl-[1,2,4]triazolo[4,3-a]quinoxaline-4-ylamino)-butyl]-butyramide], the concentration for half-maximal inhibition (IC50) was at most 200 nM in assay [1] (setting [3]); 158 nM in assay [1] (setting [4]); 24 nM in assay [2] (setting [6]); at most 50 nM in assay [2] (IC50, BRD4 binding inhibition, GST-BRD4 (BD1+BD2) / biotinylated acetyl-histone H4 (Lys5,8,12,16) peptide).

With `Cc1nnc2c(NCCCCNC(=O)OC(C)(C)C)nc3cc(-c4nc5ccccc5[nH]4)ccc3n12` [Example 218, {4-[7-(1H-benzoimidazole-2-yl)-1-methyl-[1,2,4]triazolo[4,3-a]quinoxaline-4-ylamino]-butyl}-carbamic acid-tert-butylester], the IC50 in assay [1] (setting [4]) is 320 nM; in assay [2] (setting [5]), at most 50 nM; in assay [2] (setting [6]), 25 nM.

With `Cc1nnc2c(NCCCCNC(=O)OC(C)(C)C)nc3cc4c(cc3n12)OCCO4` [Example 178, [4-(1-methyl-8,9-dihydro-7,10-dioxa-2,3,5,11b-tetraaza-cyclopenta[a]anthracene-4-ylamino)-butyl]-carbamic acid-tert-butylester], the IC50 in assay [1] (setting [4]) is 440 nM; in assay [2] (setting [5]), at most 50 nM; in assay [2] (setting [6]), 17 nM.

For `COCCOc1ccc2c(c1)nc(NCCCCNC(=O)CCC1CCCC1)c1nnc(C)n12` [Example 393, 3-cyclopentyl-N-{4-[7-(2-methoxy-ethoxy)-1-methyl-[1,2,4]triazolo[4,3-a]quinoxaline-4-ylamino]-butyl}-propionamide], the IC50 is at most 200 nM in assay [1] (setting [3]), 170 nM in assay [1] (setting [4]), at most 10 nM in assay [2] (setting [5]) and 3 nM in assay [2] (setting [6]).

Take `CCC(C)CC(=O)NCCCCNc1nc2cc(-n3ccnc3)ccc2n2c(C)nnc12` (stereo not drawn) [Example 495, 3-methyl-pentanoic acid-[4-(7-imidazole-1-yl-1-methyl-[1,2,4]triazolo[4,3-a]quinoxaline-4-ylamino)-butyl]-amide]: the IC50 is at most 200 nM in assay [1] (setting [3]), 29 nM in assay [1] (setting [4]), at most 50 nM in assay [2] (setting [5]) and 12 nM in assay [2] (setting [6]).

As for `COc1ccc2c(c1)nc(NCCCCNC(=O)[C@@H](C(C)C)N(C)C)c1nnc(C)n12` [Example 312, 2-(R)-dimethylamino-N-[4-(7-methoxy-1-methyl-[1,2,4]triazolo[4,3-a]quinoxaline-4-ylamino)-butyl]-3-methyl-butyramide], the IC50 in assay [1] (setting [4]) was 510 nM; in assay [2] (setting [5]) it was at most 50 nM; in assay [2] (setting [6]), 18 nM.

Consider `COc1ccc2c(c1)nc(NCCCCNC(=O)CC(C)(C)C)c1nnc(C)n12` [Example 287, N-[4-(7-methoxy-1-methyl-[1,2,4]triazolo[4,3-a]quinoxaline-4-ylamino)-butyl]-3,3-dimethyl-butyramide], for which the results for the IC50 in assay [1] (setting [3]), in assay [1] (setting [4]) and in assay [2] (setting [6]) were at most 200 nM, 125 nM and 67 nM, respectively.

Turning to `COc1ccc2c(c1)nc(NCCCCNC(=O)C(C)(C)C(F)(F)F)c1nnc(C)n12` [Example 293, 3,3,3-trifluoro-N-[4-(7-methoxy-1-methyl-[1,2,4]triazolo[4,3-a]quinoxaline-4-ylamino)-butyl]-2,2-dimethyl-propaneamide], the IC50 in assay [1] (setting [4]) was 673 nM; in assay [2] (setting [5]), at most 50 nM; in assay [2] (setting [6]) it was 40 nM.

As to `CCOc1cc2nc(NCCCCNC(=O)CC(C)C)c3nnc(C)n3c2cc1OCC` [Example 177], the IC50 in assay [1] (setting [3]) is at most 200 nM; in assay [1] (setting [4]), 110 nM; in assay [2] (setting [5]), at most 50 nM; in assay [2] (setting [6]) it was 50 nM.

Regarding `Cc1nnc2c(NCCCCNC(=O)[C@@H](F)C(C)C)nc3cc(N4CCc5sccc5C4)ccc3n12` [Example 529, N-{4-[7-(6,7-dihydro-4H-thiano[3,2-c]pyridine-5-yl)-1-methyl-[1,2,4]triazolo[4,3-a]quinoxaline-4-ylamino]-butyl}-2-(S)-fluoro-3-methyl-butyramide], the IC50 in assay [1] (setting [3]) was at most 200 nM; in assay [1] (setting [4]), 107 nM; in assay [2] (setting [5]) it was at most 50 nM; in assay [2] (setting [6]), 31 nM.

Turning to `CSc1ccc2c(c1)nc(NCCCCNC(=O)OC(C)(C)C)c1nnc(C)n12` [Example 354, [4-(1-methyl-7-methylsulfanyl-[1,2,4]triazolo[4,3-a]quinoxaline-4-ylamino)-butyl]-carbamic acid-tert-butylester], the IC50 in assay [1] (setting [4]) came out at 472 nM; in assay [2] (setting [6]), 56 nM.

On to `Cc1nnc2c(NCCCCNC(=O)[C@H](O)C(C)C)nc3cc(N4C[C@@H](C)O[C@@H](C)C4)ccc3n12` [Example 512, N-{4-[7-(2,6-dimethyl-morpholine-4-yl)-1-methyl-[1,2,4]triazolo[4,3-a]quinoxaline-4-ylamino]-butyl}-2-(R)-hydroxy-3-methyl-butyramide], for which the IC50 in assay [1] (setting [4]) stood at 631 nM; in assay [2] (setting [6]) it was 65 nM.

Take `COc1ccc2c(c1)nc(NCCCCC(=O)NC(C)C)c1nnc(C)n12` [Example 654, 5-(7-methoxy-1-methyl-[1,2,4]triazolo[4,3-a]quinoxaline-4-ylamino)-pentanoic acid isopropylamide]: the IC50 in assay [1] (setting [4]) is 270 nM; in assay [2] (setting [5]) it was at most 50 nM; in assay [2] (setting [6]), 11 nM.

Consider `COc1cc2nc(NCCCCNC(=O)c3ccc(C(C)(C)C)cc3)c3nnc(C)n3c2cc1OC` [Example 96, 4-tert-butyl-N-[4-(7,8-dimethoxy-1-methyl-[1,2,4]triazolo[4,3-a]quinoxaline-4-ylamino)-butyl]-benzamide], for which the IC50 is 630 nM in assay [1] (setting [4]) and at most 50 nM in assay [2] (setting [5]).

Turning to `COc1cc2nc(NCCCCC(=O)NCC(C)C)c3nnc(C)n3c2cc1OC` [Example 648, 5-(7,8-dimethoxy-1-methyl-[1,2,4]triazolo[4,3-a]quinoxaline-4-ylamino)-pentanoic acid-isobutylamide], the IC50 is at most 200 nM in assay [1] (setting [3]), 130 nM in assay [1] (setting [4]), at most 50 nM in assay [2] (setting [5]) and 27 nM in assay [2] (setting [6]).

Regarding `CCCOC(=O)NCCCCNc1nc2cc(-c3nc4ccccc4n3C)ccc2n2c(C)nnc12` [Example 228, {4-[1-methyl-7-(1-methyl-1H-benzoimidazole-2-yl)-[1,2,4]triazolo[4,3-a]quinoxaline-4-ylamino]-butyl}-carbamic acid propylester], the IC50 in assay [1] (setting [3]) is at most 200 nM; in assay [1] (setting [4]), 140 nM; in assay [2] (setting [5]), at most 10 nM; in assay [2] (setting [6]), 7 nM.

The IC50 is the concentration that inhibits the measured activity by half.
